Data from patent US20100056525A1, “5- AND 6- SUBSTITUTED BENZIMIDAZOLE THIOPHENE COMPOUNDS” (priority 2006, published 2010).

Columns and labels:
[1] = test system: HCT-116 (human colon) cells; test: Cell-Titer Glo Cell Growth Inhibition Assay; assay type: cell-based; conditions: HCT-116 cells, 72 h incubation, CellTiter-Glo, read-out: HCT116 IC50
Protocol: A549-L (human lung), Colo 205 (human colon), HCT-116 (human colon), HT29 (human colon), MX-1 (human breast), SKOV3 (human ovary) and P388 (murine leukemia) cell lines were cultured in RPM11640 containing 10% fetal bovine serum at 37° C. in a 5% CO2 incubator. Cell lines were split into T75 flasks (Falcon #353136) two to three days prior to assay set up at density which yields approximately 70-80% confluency at time of harvest for assay. Cells were harvested using 0.25% trypsin with EDTA (Glibco/Invitrogen #25200-056), Cell counts were performed on cell suspensions using Trypan Blue exclusion staining, cells were then plated in 105 µL of culture media per well at the following densities in 96 well Costar #3916 black flat bottom plates: A549-L 500 cells/well, Colo205 500 cells/well, HCT-116 500 cells/well, HT29 500 cells/well, MX-1 500 cells/well, SKOV3 500 cells/well and P388 250 cells/well. All plates were placed at 5% CO2 37° C. overnight and then test compounds were added the following day. One plate of each cell type was treated with CellTiter-Glo (Promega #G7573) for a day 0 proliferation measurement and read as described below. The test compounds were prepared in clear U bottom polypropylene 96 well plates (Falcon #35-1190 with consecutive two fold dilutions. 9 uL of these dilutions was added into each well of the cell plates. The final concentration of DMSO in all wells was 0.15%. Cells were incubated at 37° C., 5% CO2 for 72 h. Following 72 h of incubation with compounds each plate was developed and read. CellTiter-Glo reagent was added to assay plates using a volume equivalent to the cell culture volume in the wells. Plates were shaken for approximately 2 min and incubated at rt for approximately 15 min and the chemiluminescent signal was read on the Victor V or Envison 2100 reader. […] Concentration of compound that inhibited 50% of cell growth (IC50) was analyzed by 4 or 6 parameter fit of data using XLfit, value of no cell addition was substracted from all samples for background.

[2] = molecular target: T1, PLK1 kinase domain (Homo sapiens, UniProt P53350); test: Assay for Inhibition of PLK1 (SPA, 33P-ATP); assay type: biochemical; conditions: 2 nM PLK1 kinase domain, 1 μM ATP, 22° C.; read-out: PLK1 pIC50 (converted)
T1 construct: made in house; host or cells: baculovirus infected T. ni cells
T1 sequence (P53350 21-346): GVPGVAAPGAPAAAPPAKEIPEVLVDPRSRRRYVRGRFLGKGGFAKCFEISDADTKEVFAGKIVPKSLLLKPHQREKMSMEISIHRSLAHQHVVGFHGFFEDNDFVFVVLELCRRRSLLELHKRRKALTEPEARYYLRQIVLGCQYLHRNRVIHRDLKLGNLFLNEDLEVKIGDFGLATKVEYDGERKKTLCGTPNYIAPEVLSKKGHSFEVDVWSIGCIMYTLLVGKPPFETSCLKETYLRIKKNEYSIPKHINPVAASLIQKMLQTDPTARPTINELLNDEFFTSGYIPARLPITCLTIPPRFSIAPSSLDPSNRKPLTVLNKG
Protocol: A. Preparation of 6× N-Terminal His-Tagged PLK Kinase Domain
All procedures were performed at 4° C. Cells were lysed in 50 mM HEPES, 200 mM NaCl, 50 mM imidazole, 5% glycerol; pH 7.5. The homogenate was centrifuged at 14K rpm in a SLA-1500 rotor for 1 hr and the supernatant filtered through a 1.2 micron filter. The supernatant was loaded onto a Nickel chelating Sepharose (Amersham Pharmacia) column and washed with lysis buffer. Protein was eluted using 20%, 30% and 100% buffer B steps where buffer B was 50 mM HEPES, 200 mM NaCl, 300 mM imidazole, 5% glycerol; pH 7.5. Fractions containing PLK were determined by SDS-PAGE. Fractions containing PLK were diluted five-fold with 50 mM HEPES, 1 mM DTT, 5% glycerol; pH 7.5, then loaded on an SP Sepharose (Amersham Pharmacia) column. After washing the column with 50 mM HEPES, 1 mM DTT, 5% glycerol; pH 7.5, PLK was step eluted with 50 mM HEPES, 1 mM DTT, 500 mM NaCl; 5% glycerol; pH 7.5. PLK was concentrated using a 10 kDa molecular weight cutoff membrane and then loaded onto a Superdex 200 gel filtration (Amersham Pharmacia) column equilibrated in 25 mM HEPES, 1 mM DTT, 500 mM NaCl, 5% glycerol; pH 7.5. Fractions containing PLK were determined by SDS-PAGE. PLK was pooled, aliquoted and stored at −80° C. Samples were quality controlled using mass spectrometry, N-terminal sequencing and amino acid analysis.
B. Enzyme Activity +/− Inhibitors was Determined as Follows:
All measurements were obtained under conditions where signal production increased linearly with time and enzyme. Test compounds were added to white 384-well assay plates (0.1 μL for 10 μL and some 20 μL assays, 1 μL for some 20 μL assays) at variable known concentrations in 100% DMSO. DMSO (1-5% final, as appropriate) and EDTA (65 mM in reaction) were used as controls.
Reaction Mix (10 or 20 μL) was quickly added to each well immediately following addition of enzyme via automated liquid handlers and incubated 1-1.5 h at 22° C. The 20 μL enzymatic reactions were stopped with 50 μL of stop mix (50 mM EDTA, 4.0 mg/mL Streptavidin SPA beads in Standard Dulbecco's PBS (without Mg^2+ and Ca^2+), 50 μM ATP) per well. The 10 μL reactions were stopped with 10 μL of stop mix (50 mM EDTA, 3.0 mg/mL Streptavidin-coupled SPA Imaging Beads (“LeadSeeker”) in Standard Dulbecco's PBS (without Mg^2+ and Ca^2+), 50 μM ATP) per well. Plates were sealed with clear plastic seals, spun at 500×g for 1 min or settled overnight, and counted in Packard TopCount for 30 seconds/well (regular SPA) or imaged using a Viewlux imager (LeadSeeker SPA). Signal above background (EDTA controls) was converted to percent inhibition relative to that obtained in control (DMSO-only) wells.

## C[C@@H](Oc1cc(-n2cnc3cc(-c4ccnc(NCCN(C)C)c4)ccc32)sc1C(N)=O)c1ccccc1C(F)(F)F [Example 1, 5-[5-(2-{[2-(Dimethylamino)ethyl]amino}-4-pyridinyl)-1H-benzimidazol-1-yl]-3-({(1R)-1-[2-(trifluoromethyl)phenyl]ethyl}oxy)-2-thiophenecarboxamide]
[1]
  IC50: < 500 nM

## CNCCNc1cc(-c2ccc3c(c2)ncn3-c2cc(O[C@H](C)c3ccccc3C(F)(F)F)c(C(N)=O)s2)ccn1 [Example 2, 5-[5-(2-{[2-(Methylamino)ethyl]amino}-4-pyridinyl)-1H-benzimidazol-1-yl]-3-({(1R)-1-[2-(trifluoromethyl)phenyl]ethyl}oxy)-2-thiophenecarboxamide]
[1]
  IC50: < 500 nM
[2]
  IC50: < 100 nM

## C[C@@H](Oc1cc(-n2cnc3cc(-c4ccnc(NC(=O)CN(C)C)c4)ccc32)sc1C(N)=O)c1ccccc1C(F)(F)F [Example 3, 5-(5-{2-[(N,N-dimethylglycyl)amino]-4-pyridinyl}-1H-benzimidazol-1-yl)-3-({(1R)-1-[2-(trifluoromethyl)phenyl]ethyl}oxy)-2-thiophenecarboxamide]
[1]
  IC50: < 500 nM
[2]
  IC50: < 100 nM

## C[C@@H](Oc1cc(-n2cnc3cc(-c4ccnc(NC(=O)CN)c4)ccc32)sc1C(N)=O)c1ccccc1C(F)(F)F [Example 4, 5-{5-[2-(Glycylamino)-4-pyridinyl]-1H-benzimidazol-1-yl}-3-({(1R)-1-[2-(trifluoromethyl)phenyl]ethyl}oxy)-2-thiophenecarboxamide]
[1]
  IC50: < 500 nM
[2]
  IC50: < 100 nM

## C[C@@H](Oc1cc(-n2cnc3cc(-c4ccnc(NCCCN(C)C)c4)ccc32)sc1C(N)=O)c1ccccc1C(F)(F)F [Example 5, 5-[5-(2-{[3-(Dimethylamino)propyl]amino}-4-pyridinyl)-1H-benzimidazol-1-yl]-3-([(1R)-1-[2-(trifluoromethyl)phenyl]ethyl]oxy)-2-thiophenecarboxamide]
[1]
  IC50: < 500 nM
[2]
  IC50: < 100 nM

## C[C@@H](Oc1cc(-n2cnc3cc(-c4ccnc(NCCN)c4)ccc32)sc1C(N)=O)c1ccccc1C(F)(F)F [Example 6, 5-(5-{2-[(2-Aminoethyl)amino]-4-pyridinyl}-1H-benzimidazol-1-yl)-3-([(1R)-1-[2-(trifluoromethyl)phenyl]ethyl]oxy)-2-thiophenecarboxamide]
[1]
  IC50: < 500 nM
[2]
  IC50: < 100 nM

## C[C@@H](Oc1cc(-n2cnc3cc(-c4ccnc(N(C)CCN(C)C)c4)ccc32)sc1C(N)=O)c1ccccc1C(F)(F)F [Example 7, 5-(5-{2-[[2-(Dimethylamino)ethyl](methyl)amino]-4-pyridinyl}-1H-benzimidazol-1-yl)-3-({(1R)-1-[2-(trifluoromethyl)phenyl]ethyl}oxy)-2-thiophenecarboxamide]
[1]
  IC50: < 500 nM
[2]
  IC50: < 100 nM

## C[C@@H](Oc1cc(-n2cnc3cc(-c4ccnc(N(C)CCCN(C)C)c4)ccc32)sc1C(N)=O)c1ccccc1C(F)(F)F [Example 8, 5-(5-{2-[[3-(Dimethylamino)propyl](methyl)amino]-4-pyridinyl}-1H-benzimidazol-1-yl)-3-({(1R)-1-[2-(trifluoromethyl)phenyl]ethyl}oxy)-2-thiophenecarboxamide]
[1]
  IC50: < 500 nM
[2]
  IC50: < 100 nM

## C[C@@H](Oc1cc(-n2cnc3cc(-c4ccnc(NCCCN5CCN(C)CC5)c4)ccc32)sc1C(N)=O)c1ccccc1C(F)(F)F [Example 9, 5-[5-(2-{[3-(4-Methyl-1-piperazinyl)propyl]amino}-4-pyridinyl)-1H-benzimidazol-1-yl]-3-({(1R)-1-[2-(trifluoromethyl)phenyl]ethyl}oxy)-2-thiophenecarboxamide]
[1]
  IC50: < 500 nM
[2]
  IC50: < 100 nM

## C[C@@H](Oc1cc(-n2cnc3cc(-c4ccnc(NCCN(C)C)c4)ccc32)sc1C(N)=O)c1ccccc1Cl [Example 10, 3-{[(1R)-1-(2-chlorophenyl)ethyl]oxy}-5-[5-(2-{[2-(dimethylamino)ethyl]amino}-4-pyridinyl)-1H-benzimidazol-1-yl]-2-thiophenecarboxamide]
[1]
  IC50: < 500 nM
[2]
  IC50: < 100 nM

## C[C@@H](Oc1cc(-n2cnc3cc(-c4ccnc(NCCCN5CCN(C)CC5)c4)ccc32)sc1C(N)=O)c1ccccc1Cl [Example 11, 3-{[(1R)-1-(2-chlorophenyl)ethyl]oxy}-5-[5-(2-{[3-(4-methyl-1-piperazinyl)propyl]amino}-4-pyridinyl)-1H-benzimidazol-1-yl]-2-thiophenecarboxamide]
[1]
  IC50: < 500 nM
[2]
  IC50: < 100 nM

## C[C@@H](Oc1cc(-n2cnc3cc(-c4ccnc(NCCN5CCOCC5)c4)ccc32)sc1C(N)=O)c1ccccc1Cl [Example 12, 3-{[(1R)-1-(2-chlorophenyl)ethyl]oxy}-5-[5-(2-{[2-(4-morpholinyl)ethyl]amino}-4-pyridinyl)-1H-benzimidazol-1-yl]-2-thiophenecarboxamide]
[1]
  IC50: < 500 nM
[2]
  IC50: < 100 nM

## C[C@@H](Oc1cc(-n2cnc3cc(-c4ccnc(NC[C@@H](O)CO)c4)ccc32)sc1C(N)=O)c1ccccc1Cl [Example 13, 3-{[(1R)-1-(2-chlorophenyl)ethyl]oxy}-5-[5-(2-{[(2R)-2,3-dihydroxypropyl]amino}-4-pyridinyl)-1H-benzimidazol-1-yl]-2-thiophenecarboxamide]
[1]
  IC50: < 500 nM
[2]
  IC50: < 100 nM

## C[C@@H](Oc1cc(-n2cnc3cc(-c4ccnc(NCCO)c4)ccc32)sc1C(N)=O)c1ccccc1Cl [Example 14, 3-{[(1R)-1-(2-chlorophenyl)ethyl]oxy}-5-(5-{2-[(2-hydroxyethyl)amino]-4-pyridinyl}-1H-benzimidazol-1-yl)-2-thiophenecarboxamide]
[1]
  IC50: < 500 nM

## CC(C)[C@H](N)C(=O)OCCNc1cc(-c2ccc3c(c2)ncn3-c2cc(O[C@H](C)c3ccccc3Cl)c(C(N)=O)s2)ccn1 [Example 15, 2-({4-[1-(5-(Aminocarbonyl)-4-{[(1R)-1-(2-chlorophenyl)ethyl]oxy}-2-thienyl)-1H-benzimidazol-5-yl]-2-pyridinyl}amino)ethyl L-valinate]
[1]
  IC50: < 500 nM
[2]
  IC50: < 100 nM

## C[C@@H](Oc1cc(-n2cnc3cc(-c4ccnc(NCCN(C)C)n4)ccc32)sc1C(N)=O)c1ccccc1C(F)(F)F [Example 16, 5-[5-(2-{[2-(Dimethylamino)ethyl]amino}pyrimidin-4-yl)-1H-benzimidazol-1-yl]-3-({(1R)-1-[2-(trifluoromethyl)phenyl]ethyl}oxy)thiophene-2-carboxamide]
[1]
  IC50: < 500 nM
[2]
  IC50: < 100 nM
